pIC50: −log10 of the molar value. Read-outs that look alike come from different tables or passages of the source.
Assays:
NCI-H460dnp53 cell line = experiment: MTS colorimetric cell viability assay, CHK-ATM combination, NCI-H460dnp53
SW620 cell line = experiment: MTS colorimetric cell viability assay, CHK-ATM combination, SW620; settings: for pIC50: Homo sapiens

CC1CN(CC(=O)Nc2ccc3c(c2)Cc2cccc(-c4cc(=O)cc(N5CCOCC5)o4)c2S3)CC(C)O1 (stereo not shown) [ATM inhibitor, 2-[(2,6)-2,6-dimethylmorpholin-4-yl]-N-[5-(6-morpholin-4-yl-4-oxo-4H-pyran-2-yl)-9H-thioxanthen-2-yl]acetamide]
pIC50 (NCI-H460dnp53 cell line; 96 h, read-out: IC50 of ATM inhibitor, ATM inhibitor + CHK inhibitor Simultaneous): 5.77 | pIC50 (NCI-H460dnp53 cell line; read-out: IC50 of ATM inhibitor alone): < 4.52 | pIC50 (NCI-H460dnp53 cell line; read-out: IC50 of ATM inhibitor, ATM inhibitor followed by CHK inhibitor): 5.42 | pIC50 (NCI-H460dnp53 cell line; read-out: IC50 of ATM inhibitor, CHK inhibitor followed by ATM inhibitor): 5.36 | pIC50 (SW620 cell line; SW-620, 96 h, read-out: IC50 of ATM inhibitor, ATM inhibitor + CHK inhibitor Simultaneous): 5.72 | pIC50 (SW620 cell line; SW-620, read-out: IC50 of ATM inhibitor alone): 5.15 | pIC50 (SW620 cell line; SW-620, read-out: IC50 of ATM inhibitor, ATM inhibitor followed by CHK inhibitor): 5.47 | pIC50 (SW620 cell line; SW-620, read-out: IC50 of ATM inhibitor, CHK inhibitor followed by ATM inhibitor): 5.22

NC(=O)Nc1cc(-c2cccc(F)c2)sc1C(=O)N[C@H]1CCCNC1 [CHK inhibitor, 5-(3-Fluoro-phenyl)-3-ureido-thiophene-2-carboxylic acid (S)-piperidin-3-ylamide]
activity of CHK inhibitor as a single agent at the constant concentration used (NCI-H460dnp53 cell line; NCI-H460dnp53, 0.33 uM, single agent, previously determined): no activity | activity of CHK inhibitor as a single agent at the constant concentration used (SW620 cell line; SW620, 0.28 uM, single agent, previously determined): no activity

— patent publication US20100240645A1, “COMBINATION OF CHECKPONIT KINASE (CHK) AND TELANGIECTASIA MUTATED (ATM) INHIBITORS FOR THE TREATMENT OF CANCER” (ASTRAZENECA AB, priority 2007, published 2010)
